Data: PubChem BioAssay (NCI)
Where “and” joins values, the source holds several entries; their conditions need not be identical. Equal values may be shown once.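 These data come from cells grown in 96-well plates and exposed to compound for 48 hours at five concentrations. GI50: concentration for 50% inhibition of growth. Definition used: TGI = concentration required for complete inhibition of growth.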

Columns and labels:
Experiment in all cases: growth of human tumour cells (NCI), 48 h
OVCAR-4 ovarian = tested on: OVCAR-4 ovarian
OVCAR-3 ovarian = tested on: OVCAR-3 ovarian
HOP-62 NSCLC = tested on: HOP-62 NSCLC
EKVX NSCLC = tested on: EKVX NSCLC
CCRF-CEM leukemia = tested on: CCRF-CEM leukemia
MALME-3M melanoma = tested on: MALME-3M melanoma
NCI/ADR-RES ovarian = tested on: NCI/ADR-RES ovarian
SF-295 CNS = tested on: SF-295 CNS
SW-620 colon = tested on: SW-620 colon
HT29 colon = tested on: HT29 colon

SMILES	GI50 (OVCAR-4 ovarian) [µM]	TGI (OVCAR-4 ovarian)	GI50 (OVCAR-3 ovarian) [µM]	TGI (OVCAR-3 ovarian)	GI50 (HOP-62 NSCLC) [µM]	TGI (HOP-62 NSCLC)	GI50 (EKVX NSCLC) [µM]	TGI (EKVX NSCLC)	GI50 (CCRF-CEM leukemia) [µM]	TGI (CCRF-CEM leukemia)	GI50 (MALME-3M melanoma) [µM]	TGI (MALME-3M melanoma)	GI50 (NCI/ADR-RES ovarian) [µM]	TGI (NCI/ADR-RES ovarian) [µM]	GI50 (SF-295 CNS) [µM]	TGI (SF-295 CNS)	GI50 (SW-620 colon) [µM]	TGI (SW-620 colon)	GI50 (HT29 colon) [µM]	TGI (HT29 colon)
N#C/C(=N\Nc1ccccc1)C(=O)Nc1cc(-c2ccccc2)nn1-c1ccccc1	2.01	8.95 µM	3.24	33.2 µM	2.84	49.9 µM	2.93	> 100 µM	2.5	> 100 µM	2.84	> 100 µM	2.83	30.2	3.14	> 100 µM	3.15	> 100 µM	3.2	17.3 µM
CC(=O)/C=C/C1=C(c2csc3ccccc23)c2ccccc2CC1	17.8	> 100 µM	13.6	43.3 µM	44.5	> 100 µM	30.4	> 100 µM	23.2	79.4 µM	21.7	55.4 µM	21.8	72.7	21	65.2 µM	28	> 100 µM	21.3	> 100 µM
Cc1[nH]c(N)nc(=S)c1CCC(=O)O	–	> 100 µM	–	> 100 µM	–	> 100 µM	–	> 100 µM	–	> 100 µM	–	> 100 µM	–	> 100	–	> 100 µM	–	> 100 µM	–	> 100 µM
Cc1ccc2c(c1)C(=O)c1c-2c(OCCCN(C)C)nc2ccccc12	2.73	13.1 µM	5.72	19.8 µM	2.52	16 µM	2.42	13.5 µM	1.62	9.13 µM	1.54	3.29 µM	1.24	6.53	2.87	14.1 µM	0.587	2.02 µM	0.71	3.33 µM
Nc1nc2cc(CC[C@H]3C[C@@H](n4ccc5c(N)ncnc54)[C@H](O)[C@@H]3O)ccc2cc1Br	2.06	19.1 µM	10	26.1 µM	8.91	24.2 µM	4.22	22 µM	12.3	> 100 µM	7.42	21.5 µM	10.5	26.9	3.25	19 µM	13.3	27.7 µM	2.46	24.3 µM
COC1=CC(c2ccc[nH]2)=N/C1=C\c1[nH]c(C)c(CC(=O)OCc2ccccc2)c1C	0.256	5.17 µM	0.31	1.41 µM	0.374	2.27 µM	0.351	2.06 µM	0.184	1.94 µM	0.578	2.1 µM	0.444	1.97	0.252	1.1 µM	0.366	1.79 µM	0.205	1.41 µM
CC([C@H]1CC=C2C3CCC4=C[C@@H](N(C)C)CC[C@]4(C)C3CC[C@@]21C)N(C)C (stereo not given in full)	3.26	21.9 µM	2.45	8.74 µM	1.8	3.87 µM	1.99	18.3 µM	2.11	7.79 µM	1.92	4.47 µM	4.25	18.2	1.79	4.35 µM	2.49	8.24 µM	0.455	2.11 µM
CC(=O)O[C@H]1C(=O)[C@@]2(C)[C@H]([C@H](OC(=O)c3ccccc3)[C@]3(O)C[C@H](OC(=O)[C@H](OC(=O)OC[C@H]4COC(C)(C)O4)[C@@H](NC(=O)c4ccccc4)c4ccccc4)C(C)=C1C3(C)C)[C@]1(OC(C)=O)CO[C@@H]1C[C@@H]2O	> 33.3	> 33.3 µM	0.0109	0.252 µM	0.0596	> 33.3 µM	0.113	> 33.3 µM	0.0265	> 33.3 µM	0.227	> 33.3 µM	> 33.3	> 33.3	0.0365	0.314 µM	0.0138	> 33.3 µM	0.0059	> 33.3 µM
O=C(C#Cc1ccccc1)C1=Cc2ccccc2OC1	–	8.9 µM	–	5.35 µM	–	29.3 µM	–	6.12 µM	–	0.528 µM	–	13.2 µM	–	14.4	–	48.3 µM	–	9.84 µM	–	5.02 µM
COc1ccc(NC(=O)c2sc3nc(C)c(C(=O)/C=C/c4cccc(OC)c4)cc3c2N)cc1	4.01	17.8 µM	0.939	2.68 µM	1.29	3.47 µM	5.7	32.5 µM	1.21	> 50 µM	3.85	45 µM	1.59	> 50	3.28	> 50 µM	1.26	3.79 µM	1.02	2.35 µM
C[C@H]1COCCN1c1cc(C2(S(=O)(=O)C3CC3)CC2)nc(-c2ccc(NC(=S)NCCO)cc2)n1	0.0159	0.233 µM	0.022	11.7 µM	0.0486	4.37 µM	0.0267	3.76 µM	0.0323	> 100 µM	< 0.01	0.0437 µM	1.93	47.8	0.0194	0.228 µM	0.0634	> 100 µM	0.0648	> 60.4 µM
CC(C)C(=O)c1c(C(F)(F)F)n([O-])c2cc(F)c(F)cc2[n+]1=O	0.842	2.89 µM	0.667	2.01 µM	0.0985	0.602 µM	1.53	3.4 µM	0.0218	> 100 µM	0.693	2.21 µM	0.2	0.545	1.19	2.56 µM	0.13	0.277 µM	0.168	0.547 µM
O=C(c1ccccc1)c1c(C(F)(F)F)n([O-])c2cc(C(F)(F)F)ccc2[n+]1=O	1.19	2.89 µM	1.61	3.11 µM	1.83	3.5 µM	1.73	3.42 µM	0.6	2.44 µM	1.6	3.33 µM	2.01	5.12	1.57	2.97 µM	0.619	1.69 µM	0.983	2.86 µM
COc1ccc2c(c1OC)C(C(Cl)(Cl)Cl)N1CCc3cc4c(cc3C1=C2)OCO4 (stereo not given)	–	69 µM	–	65.8 µM	–	–	–	> 100 µM	–	62.2 µM	–	37.3 µM	–	> 100	–	> 100 µM	–	> 100 µM	–	68.4 µM
C[n+]1c2ccccc2nc2ccccc21	0.447	1.75 µM	0.338	1.19 µM	3.66	10.7 µM	1.69	7.96 µM	0.683	> 28.7 µM	1.22	2.7 µM	1.68	6.91	1.54	4.19 µM	1.37	3.26 µM	1.76	12 µM
Cn1c(-c2ccccc2)c(/C=C/C2=[N+](C)c3ccccc3C2(C)C)c2ccccc21	1.81	14.4 µM	0.664	6.37 µM	2.15	12.6 µM	0.397	10.4 µM	1.18	54.7 µM	0.68	3.1 µM	9.8	72.3	0.775	3.73 µM	1.52	12.5 µM	0.711	7.59 µM
CCCCCCCC/C=C1\CCC(CN2CCOCC2)C1=O (stereo not given)	–	31 µM	–	14.8 µM	–	30 µM	–	32.9 µM	–	10.9 µM	–	24.7 µM	–	14.4	–	28.2 µM	–	8.39 µM	–	20.5 µM
O=C(/C=C1\C(=O)N(Cc2ccccc2)c2ccccc21)c1ccc(OCCN2CCCCC2)cc1	2.99	11.3 µM	1.75	3.2 µM	18.4	32.4 µM	2.36	7.48 µM	1.83	5.9 µM	1.71	3.39 µM	3.14	11.7	12.7	25.9 µM	1.7	3.3 µM	1.82	3.36 µM
Cc1c(N)nc(C(CC(N)=O)NCC(N)C(N)=O)nc1C(=O)NC(C(=O)NC(C)C(O)C(C)C(=O)NC(C(=O)NCCc1nc(-c2nc(C(=O)NCCCNC(C)c3ccccc3)cs2)cs1)C(C)O)C(OC1OC(CO)C(O)C(O)C1OC1OC(CO)C(O)C(OC(N)=O)C1O)c1cnc[nH]1 (stereo not given)	81.5	33.7 µM and > 100 µM	79.2	38.3 µM and > 100 µM	0.0845	1.07 µM and 3.01 µM	> 100	50 µM and > 100 µM	7.5	50 µM and > 100 µM	1.84	37.2 µM and > 100 µM	–	45.5	0.115	5.22 µM and 3.46 µM	24.8	50 µM and > 100 µM	–	50 µM and > 100 µM
O=c1oc2cc(OC/C(=N/O)c3ccc(F)cc3)ccc2c2ccccc12	–	–	17.6	40.6 µM	18.1	34.2 µM	20.9	42.5 µM	23	> 100 µM	19.6	42.8 µM	18	36.2	18.4	41.5 µM	23.2	44.6 µM	19.4	43.2 µM
Clc1ccc2nc(CI)c(CI)nc2c1	2.45	6.22 µM	3.02	7.14 µM	28.7	> 56.3 µM	13.6	40.9 µM	2.3	15.3 µM	1.75	3.83 µM	6.8	> 57.7	15.4	36.8 µM	2.54	6.62 µM	3.74	19.6 µM
COc1ccc(/C(C#N)=C/c2cc(OC)c(OC)c(OC)c2)cc1	38.4	> 100 µM	33.8	> 100 µM	34.3	> 100 µM	–	–	22.1	78.6 µM	7.68	56.7 µM	13.2	65.1	15	41.9 µM	13.6	> 100 µM	11.8	85.8 µM
Cn1nc(C(F)(F)F)c(-c2cc(C(F)(F)F)cc(C(F)(F)F)c2)c1-c1ccc(OCc2ccc(Cl)cc2)cc1O	2.68	13.3 µM	2.27	10.7 µM	2.82	8.57 µM	–	–	2.26	14.9 µM	1.99	5.24 µM	2.81	9.8	2.31	7.3 µM	3	11 µM	2.9	10.6 µM
NC(N)=NC(N)=NCCCc1ccco1	96.8	268 µM	114	329 µM	82.7	196 µM	–	–	21.8	121 µM	18.7	66.2 µM	66.4	247	163	> 500 µM	18.2	125 µM	> 500	> 500 µM
O=C(Nc1ccc(F)cc1)Nc1ccc(Br)c(C(F)(F)F)c1	2.13	9.75 µM	1.65	11.6 µM	–	–	2.4	10.6 µM	2.27	6.53 µM	2.12	5.8 µM	2.51	10.1	1.39	5.62 µM	3.22	12.7 µM	2.3	10.9 µM
COc1ccc(/C=C2\SC(=Nc3ccccc3)NC2=O)cc1	10	25.7 µM	3.67	11.2 µM	7.06	26.1 µM	–	–	5.4	> 100 µM	19	99.8 µM	4.61	> 100	4.6	> 100 µM	3.38	24.4 µM	4.38	19.5 µM
